Results: patent publication US20240261249A1, “NOVEL SQUARAMIDE DERIVATIVE AND USE THEREOF” (PUSAN NATIONAL UNIVERSITY INDUSTRY-UNIVERSITY COOPERATION …, priority 2021, published 2024)

tested on: Phospho-eIF2α (Ser51); experiment: Phospho-eIF2α (Ser51) Sandwich ELISA in K562 cells; format: cell-based; conditions: Homo sapiens, K562, 6 h, serum-free RPMI, 10 μM compound, control = 1, read-out: eIF2α phosphorylation, absorbance standardized to control (DMSO-treated) set to 1, at 10 μM
Protocol: Pathscan Phospho-eIF2α (Ser51) Sandwich ELISA Kit #7286 from Cell signaling was used. The K562 cell line was cultured in serum-free RPMI medium at 37° C. in the presence of 5% CO2. Cells were treated with test compounds at a concentration of 10 μM. Six hours after compound treatment, the cells were lysed with a lysis buffer included in the kit to obtain 50 μg of protein by quantification. Afterwards, ELISA assay was performed according to the manufacturer's protocol to obtain absorbance. The absorbance for each obtained compound was standardized to a value of which the control (DMSO-treated) is set to 1.

Q: Which activity at 10 µM does the source give for `COC(=O)c1ccc(Nc2c(N[C@H]3CC[C@H](Oc4ccc(S(C)(=O)=O)cc4)CC3)c(=O)c2=O)cc1` [Compound 61, Methyl 4-((2-(((1,4-trans)-4-(4-(methylsulfonyl)phenoxy)cyclohexyl)amino)-3,4-dioxocyclobut-1-en-1-yl)amino)benzoate] here?
A: 148%

Q: How did the activity at 10 µM turn out when `CC(C)(C)c1ccccc1Nc1c(N[C@H]2CC[C@H](Oc3ccc([N+](=O)[O-])cc3)CC2)c(=O)c1=O` [Compound 76, 3-((2-(tert-Butyl)phenyl)amino)-4-(((1,4-trans)-4-(4-nitrophenoxy)cyclohexyl)amino)cyclobut-3-ene-1,2-dione] was run?
A: 139%

Q: Which activity at 10 µM does the source give for `O=c1c(Nc2ccc(Cl)cc2)c(N[C@H]2CC[C@H](Oc3ccc(C(F)(F)F)cc3)CC2)c1=O` [Compound 42, 3-((4-Chlorophenyl)amino)-4-(((1,4-trans)-4-(4-(trifluoromethyl)phenoxy)cyclohexyl)amino)cyclobut-3-ene-1,2-dione] here?
A: 93%

Q: For `NS(=O)(=O)c1ccc(O[C@H]2CC[C@H](Nc3c(Nc4cccc(C(F)(F)F)c4)c(=O)c3=O)CC2)cc1` [Compound 27, 4-(((1,4-trans)-4-((3,4-Dioxo-2-((3-(trifluoromethyl)phenyl)amino)cyclobut-1-en-1-yl)amino)cyclohexyl)oxy)benzenesulfonamide], which activity at 10 µM is on record?
A: 108%

Q: How did the activity at 10 µM turn out when `CS(=O)(=O)c1ccc(O[C@H]2CC[C@H](Nc3c(Nc4cccc(Cl)c4)c(=O)c3=O)CC2)cc1` [Compound 21, 3-((3-Chlorophenyl)amino)-4-(((1,4-trans)-4-(4-(methylsulfonyl)phenoxy)cyclohexyl)amino)cyclobut-3-ene-1,2-dione] was run?
A: 77%

Q: `O=c1c(Nc2ccc(C(F)(F)F)cc2)c(N[C@H]2CC[C@H](Oc3ccc([N+](=O)[O-])cc3)CC2)c1=O` [Compound 48, 3-(((1,4-trans)-4-(4-Nitrophenoxy)cyclohexyl)amino)-4-((4-(trifluoromethyl)phenyl)amino)cyclobut-3-ene-1,2-dione] was tested. Which activity at 10 µM did it give?
A: 91%

Q: With `O=c1c(Nc2cccc(F)c2)c(N[C@H]2CC[C@H](Oc3ccc([N+](=O)[O-])cc3)CC2)c1=O` [Compound 15, 3-((3-Fluorophenyl)amino)-4-(((1,4-trans)-4-(4-nitrophenoxy)cyclohexyl)amino)cyclobut-3-ene-1,2-dione] as the molecule, how does the activity at 10 µM read?
A: 81%

Q: `CC(C)(C)c1ccc(Nc2c(N[C@H]3CC[C@H](Oc4ccc(C(F)(F)F)cc4)CC3)c(=O)c2=O)cc1` [Compound 50, 3-((4-(tert-Butyl)phenyl)amino)-4-(((1,4-trans)-4-(4-(trifluoromethyl)phenoxy)cyclohexyl)amino)cyclobut-3-ene-1,2-dione] was tested. Which activity at 10 µM did it give?
A: 204%

Q: With `CS(=O)(=O)c1ccc(O[C@H]2CC[C@H](Nc3c(Nc4ccccc4)c(=O)c3=O)CC2)cc1` [Compound 11, 3-(((1,4-trans)-4-(4-(Methylsulfonyl)phenoxy)cyclohexyl)amino)-4-(phenylamino)cyclobut-3-ene-1,2-dione] as the molecule, how does the activity at 10 µM read?
A: 94%

Q: Which activity at 10 µM does the source give for `CC(C)(C)c1ccc(Nc2c(N[C@H]3CC[C@H](Oc4ccc(C#N)cc4)CC3)c(=O)c2=O)cc1` [Compound 51, 4-(((1,4-trans)-4-((2-((4-(tert-Butyl)phenyl)amino)-3,4-dioxocyclobut-1-en-1-yl)amino)cyclohexyl)oxy)benzonitrile] here?
A: 182%

Q: How did the activity at 10 µM turn out when `O=c1c(Nc2ccccc2F)c(N[C@H]2CC[C@H](Oc3ccc(C(F)(F)F)cc3)CC2)c1=O` [Compound 62, 3-((2-Fluorophenyl)amino)-4-(((1,4-trans)-4-(4-(trifluoromethyl)phenoxy)cyclohexyl)amino)cyclobut-3-ene-1,2-dione] was run?
A: 182%

Q: How did the activity at 10 µM turn out when `O=c1c(Nc2ccccc2Cl)c(N[C@H]2CC[C@H](Oc3ccc(C(F)(F)F)cc3)CC2)c1=O` [Compound 66, 3-((2-Chlorophenyl)amino)-4-(((1,4-trans)-4-(4-(trifluoromethyl)phenoxy)cyclohexyl)amino)cyclobut-3-ene-1,2-dione] was run?
A: 159%

Q: Which activity at 10 µM does the source give for `COc1ccccc1Nc1c(N[C@H]2CC[C@H](Oc3ccc(C(F)(F)F)cc3)CC2)c(=O)c1=O` [Compound 78, 3-((2-Methoxyphenyl)amino)-4-(((1,4-trans)-4-(4-(trifluoromethyl)phenoxy)cyclohexyl)amino)cyclobut-3-ene-1,2-dione] here?
A: 213%

Q: `COc1ccccc1Nc1c(N[C@H]2CC[C@H](Oc3ccc(S(N)(=O)=O)cc3)CC2)c(=O)c1=O` [Compound 82, 4-(((1,4-trans)-4-((2-((2-Methoxyphenyl)amino)-3,4-dioxocyclobut-1-en-1-yl)amino)cyclohexyl)oxy)benzenesulfonamide] was tested. Which activity at 10 µM did it give?
A: 136%

Q: How did the activity at 10 µM turn out when `COc1ccccc1Nc1c(N[C@H]2CC[C@H](Oc3ccc([N+](=O)[O-])cc3)CC2)c(=O)c1=O` [Compound 80, 3-((2-Methoxyphenyl)amino)-4-(((1,4-trans)-4-(4-nitrophenoxy)cyclohexyl)amino)cyclobut-3-ene-1,2-dione] was run?
A: 133%

Q: Which activity at 10 µM does the source give for `O=c1c(Nc2ccccc2)c(N[C@H]2CC[C@H](Oc3ccc(C(F)(F)F)cc3)CC2)c1=O` [Compound 8, 3-(Phenylamino)-4-(((1,4-trans)-4-(4-(trifluoromethyl)phenoxy)cyclohexyl)amino)cyclobut-3-ene-1,2-dione] here?
A: 95%

Q: With `NS(=O)(=O)c1ccc(O[C@H]2CC[C@H](Nc3c(Nc4cccc(Cl)c4)c(=O)c3=O)CC2)cc1` [Compound 22, 4-(((1,4-trans)-4-((2-((3-Chlorophenyl)amino)-3,4-dioxocyclobut-1-en-1-yl)amino)cyclohexyl)oxy)benzenesulfonamide] as the molecule, how does the activity at 10 µM read?
A: 219%

Q: How did the activity at 10 µM turn out when `N#Cc1ccc(O[C@H]2CC[C@H](Nc3c(Nc4ccccc4F)c(=O)c3=O)CC2)cc1` [Compound 63, 4-(((1,4-trans)-4-((2-((2-Fluorophenyl)amino)-3,4-dioxocyclobut-1-en-1-yl)amino)cyclohexyl)oxy)benzonitrile] was run?
A: 75%

Q: With `O=c1c(Nc2ccc(F)cc2)c(N[C@H]2CC[C@H](Oc3ccc(C(F)(F)F)cc3)CC2)c1=O` [Compound 38, 3-((4-Fluorophenyl)amino)-4-(((1,4-trans)-4-(4-(trifluoromethyl)phenoxy)cyclohexyl)amino)cyclobut-3-ene-1,2-dione] as the molecule, how does the activity at 10 µM read?
A: 65%

Q: With `CS(=O)(=O)c1ccc(O[C@H]2CC[C@H](Nc3c(Nc4ccc(Cl)cc4)c(=O)c3=O)CC2)cc1` [Compound 45, 3-((4-Chlorophenyl)amino)-4-(((1,4-trans)-4-(4-(methylsulfonyl)phenoxy)cyclohexyl)amino)cyclobut-3-ene-1,2-dione] as the molecule, how does the activity at 10 µM read?
A: 79%

Q: For `COc1ccccc1Nc1c(N[C@H]2CC[C@H](Oc3ccc(S(C)(=O)=O)cc3)CC2)c(=O)c1=O` [Compound 81, 3-((2-Methoxyphenyl)amino)-4-(((1,4-trans)-4-(4-(methylsulfonyl)phenoxy)cyclohexyl)amino)cyclobut-3-ene-1,2-dione], which activity at 10 µM is on record?
A: 152%

Q: How did the activity at 10 µM turn out when `N#Cc1ccc(O[C@H]2CC[C@H](Nc3c(Nc4cccc(F)c4)c(=O)c3=O)CC2)cc1` [Compound 14, 4-(((1,4-trans)-4-((2-((3-Fluorophenyl)amino)-3,4-dioxocyclobut-1-en-1-yl)amino)cyclohexyl)oxy)benzonitrile] was run?
A: 90%

Q: For `O=c1c(Nc2cccc(F)c2)c(N[C@H]2CC[C@H](Oc3ccc(C(F)(F)F)cc3)CC2)c1=O` [Compound 13, 3-((3-Fluorophenyl)amino)-4-(((1,4-trans)-4-(4-(trifluoromethyl)phenoxy)cyclohexyl)amino)cyclobut-3-ene], which activity at 10 µM is on record?
A: 84%

Q: `COC(=O)c1ccc(Nc2c(N[C@H]3CC[C@H](Oc4ccc([N+](=O)[O-])cc4)CC3)c(=O)c2=O)cc1` [Compound 60, Methyl 4-((2-(((1,4-trans)-4-(4-nitrophenoxy)cyclohexyl)amino)-3,4-dioxocyclobut-1-en-1-yl)amino)benzoate] was tested. Which activity at 10 µM did it give?
A: 97%

Q: Which activity at 10 µM does the source give for `O=c1c(Nc2ccccc2F)c(N[C@H]2CC[C@H](Oc3ccc([N+](=O)[O-])cc3)CC2)c1=O` [Compound 64, 3-((2-Fluorophenyl)amino)-4-(((1,4-trans)-4-(4-nitrophenoxy)cyclohexyl)amino)cyclobut-3-ene-1,2-dione] here?
A: 133%

Q: With `COc1ccc(Nc2c(N[C@H]3CC[C@H](Oc4ccc([N+](=O)[O-])cc4)CC3)c(=O)c2=O)cc1` [Compound 56, 3-((4-Methoxyphenyl)amino)-4-(((1,4-trans)-4-(4-nitrophenoxy)cyclohexyl)amino)cyclobut-3-ene-1,2-dione] as the molecule, how does the activity at 10 µM read?
A: 227%

Q: How did the activity at 10 µM turn out when `O=c1c(Nc2ccc(C(F)(F)F)cc2)c(N[C@H]2CC[C@H](Oc3ccc(C(F)(F)F)cc3)CC2)c1=O` [Compound 46, 3-(((1,4-trans)-4-(4-(Trifluoromethyl)phenoxy)cyclohexyl)amino)-4-((4-(trifluoromethyl)phenyl)amino)cyclobut-3-ene-1,2-dione] was run?
A: 71%

Q: For `NS(=O)(=O)c1ccc(O[C@H]2CC[C@H](Nc3c(Nc4ccccc4)c(=O)c3=O)CC2)cc1` [Compound 12, 4-(((1,4-trans)-4-((3,4-Dioxo-2-(phenylamino)cyclobut-1-en-1-yl)amino)cyclohexyl)oxy)benzenesulfonamide], which activity at 10 µM is on record?
A: 81%

Q: With `CC(C)(C)c1ccc(Nc2c(N[C@H]3CC[C@H](Oc4ccc(S(C)(=O)=O)cc4)CC3)c(=O)c2=O)cc1` [Compound 53, 3-((4-(tert-Butyl)phenyl)amino)-4-(((1,4-trans)-4-(4-(methylsulfonyl)phenoxy)cyclohexyl)amino)cyclobut-3-ene-1,2-dione] as the molecule, how does the activity at 10 µM read?
A: 133%

Q: `O=c1c(Nc2cccc(Cl)c2)c(N[C@H]2CC[C@H](Oc3ccc(C(F)(F)F)cc3)CC2)c1=O` [Compound 18, 3-((3-Chlorophenyl)amino)-4-(((1,4-trans)-4-(4-(trifluoromethyl)phenoxy)cyclohexyl)amino)cyclobut-3-ene-1,2-dione] was tested. Which activity at 10 µM did it give?
A: 71%
